{
  "source": "patent US20030186943A1",
  "about": "“Substituted gamma-phenyl-delta-lactams and uses related thereto” (Inflazyme Pharmaceuticals Ltd., priority 1998, published 2003)",
  "key": {"[1]": {"tested_on": "T1, High Affinity Rolipram Binding Site of PDE4 in Mouse Brain", "T1 construct": "other: mouse brain membranes, [3H]-Rolipram; X marks this range; other: mouse brain membranes, [3H]; Suspension was centrifuged twice at 30,000×G at 4° C. and the supernatant discarded", "test": "Displacement of [3H]-rolipram from its high affinity binding site (HARBS)"}, "[2]": {"tested_on": "collagen-induced arthritis (CIA) in the mouse", "test": "Murine collagen-induced arthritis model", "format": "in vivo", "procedure": "Male DBA/1J mice (7-8 weeks of age) were immunized through a subcutaneous injection of 0.1 mL of a collagen-adjuvant emulsion (0.1 mg chick type II collagen in complete Freund's adjuvant) at the base of the tail. Mice were then randomly assigned to treatment or control groups in the following manner: Compound 43 (n=10); 45% 2-hydroxypropyl betacyclodextrin in 0.9% saline vehicle control (n-10); untreated (n=5) and dexamethasone positive control (n=5). After three weeks the animals were boosted with a second injection of chick type II collagen emulsified at 1.0 mg/mL in incomplete Freund's adjuvant. This second injection is required for reproducible induction of disease. In control animals, clinical signs of arthritis manifested as erythema and edema of the paws and tarsal/metatarsal joints usually appear within 1-2 weeks following the second immunization. Compounds were evaluated for their ability to delay the onset of or reduce the development of arthritis (prophylactic regime). Vehicle, dexamethasone positive control (0.075 mg/kg) and compound 43 (10 mg/kg) were administered twice daily (50 microliter per injection) by i.p. injection beginning on the day of the second collagen injection. The mice continued to receive doses until the last animal in the vehicle control group reached the seventh day of having established disease. In this particular case, this necessitated treatment for 25 days including the day of the booster injection.\nThe development of clinical arthritis (disease progression) was monitored daily after the second collagen injection. All four limbs were clinically evaluated by a trained observer unfamiliar (blinded) with the treatment group identity, and scored on a scale of 0-4 for disease severity (redness and swelling) according to the following criteria.\nInflammation was defined as any redness or swelling (enlargement) of any part of any paw. Established disease was defined as a qualitative score of paw inflammation of 2 or greater, that persists for at least 24 hours. In addition, paw widths for all four limbs were measured by a blinded observer daily using precision, constant tension calipers.\nAt the end of the study each animal was euthanized by an overdose of halothane anesthesia. Joints both distal to the knee and including the knee were dissected and analyzed by histology. Limb joints were fixed in 10% formalin buffer and decalcified in 10% formic acid for 48 hours, then processed for paraffin embedding. Serial sections (5-7 micrometer thick) were stained with haematoxylin and eosin (H & E). Histopathological alterations of the tarsal and metatarsal joints were graded “blind” by a certified pathologist and a score assigned based on a ranking system.\nMice were sacrificed on the 25th day after the second collagen injection corresponding to approximately the 10th day of established disease. All four paws from each animal in the study were removed, fixed and processed for blinded histopathological examination by an ACVP board certified veterinary pathologist. Joint pathology for each foot was classified on a scale of 0 to 4, with 0 being normal and 4 the most severely affected. Lesion grades were assigned based on the most severe lesion(s) present in the paw according to the following scale:\nThe individual paw scores were then summed to obtain a total for each animal with a maximum possible score for an animal being 16. Group values were obtained by averaging the individual animal scores."}, "Th1 cells": {"tested_on": "Th1 cells", "test": "Proliferation of differentiated Th1 CD4+ T cells", "format": "cell-based, mouse", "conditions": "CD4+ T cells already differentiated into Th1 phenotype", "procedure": "The differentiation of naive CD4 T cells toward Th1 and Th2 lineages was performed as follows: 1×10^5 AND-lymph node T cells were cultured with […] B10.BR irradiated spleen cells in 2 ml of culture media with the following supplements: for Th1 cell differentiation, 100 U/mL IFNγ, 25U/mL IL2 and 10 ug/mL anti-IL4; for Th2 cell differentiation, 150 U/mL IL4, 25 U/mL IL2 and 10 ug/mL anti-IFNγ. After 3-4 days the wells were split 1:4 with the same additions. After 7 days the cells were harvested and washed 3 times to remove cytokines in the supernatents. 1×10^5 cultured cells were restimulated with 5×10^5 irradiated B10BR spleen cells +5 μM pcc peptide in 250 μl culture media without any added cytokines. The supernatents were harvested after 40 hrs and assessed for IL2, IL4 and IFNγ by ELISA. Test compounds were added throughout the differentiation of the culture.\nCultured Th1 and Th2 cells generated in the absence of test compounds were tested for proliferation and cytokine activity as described above during antigen stimulation in the presence of compound."}, "[3]": {"tested_on": "TNBS-induced colitis in the rat", "test": "TNBS-induced colitis model of inflammatory bowel disease in the rat;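 further: rat colitis induced by intracolonic TNBS in 50% ethanol, distal colon assessed at sacrifice on day 7, with saline-instilled vehicle-treated rats as controls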", "conditions": "for MPO Activity (U/mg): colonic tissue", "description": "Colitis was induced by intracolonic instillation of the hapten TNBS (60 mg/mL) in 0.5 mL of 50% ethanol. […] An additional group of rats received saline intracolonically in place of TNBS/ethanol and was treated with vehicle at the same times as outlined above. Body weights were recorded at the beginning of the study and at days 2 and 7.\nThe rats were sacrificed on the 7th day after the induction of colitis and the extent of damage and inflammation was assessed. After the rats were sacrificed, the distal colon was removed and pinned out on a wax platform. The presence or absence of diarrhea was noted, as well as the presence and severity of adhesions between the colon and other organs, and the severity and extent of colonic damage. […] After scoring, a sample of colonic tissue was excised for measurement of myeloperoxidase activity as an index of granulocyte infiltration (see Wallace et al., Gastroenterology 117: in press, 1999; and Morris et al., Gastroenterology 96:795-803, 1989). This tissue sample was 1 cm long (along the axis of the colon) and 5 mm wide and was taken from a region of macroscopically visible damage (or the corresponding region in any rats in which there was no damage). The remainder of the tissue was fixed in neutral buffered formalin and processed by routine methods for subsequent evaluation by light microscopy. In a blinded manner, the sample of colonic tissue from each rat was examined for evidence of mucosal ulceration and inflammation. The percentage of the luminal surface of the section in which ulceration was present was calculated."}, "[4]": {"conditions": "10 mg/kg i.p. twice daily, prophylactic, Day 25 after collagen boost"}, "[5]": {"conditions": "10 mg/kg intracolonically at 12 h intervals for one week, day 7"}},
  "note": "Where “and” joins values, the source holds several entries; their conditions need not be identical. Equal values may be shown once.",
  "data": [
    {"smiles": "COc1cc(CC2C[C@@H](c3ccc(OC)c(OC4CCCC4)c3)COC2=O)ccc1O", "note": "(stereo partly shown) [Compound 43]", "values": [
      {"measurement": "times less potent than rolipram for interaction with the HARBS conformer of PDE4", "setting": "[1]", "value": "approximately 28 fold"},
      {"measurement": "IC50", "setting": "[1]; read-out: IC50 for displacement of 3H-rolipram from high-affinity binding site (HARBS activity), mouse brain", "value": 250, "unit": "nM"},
      {"measurement": "reduction of arthritis score compared to the vehicle group", "setting": "[2]; 10 mg/kg i.p. bid, day 25", "value": 35, "unit": "%"},
      {"measurement": "reduction of histopathological score compared to the vehicle group", "setting": "[2]; 10 mg/kg i.p. bid, day 25", "value": 29, "unit": "%"},
      {"measurement": "reduction of paw edema compared to the vehicle group", "setting": "[2]; 10 mg/kg i.p. bid, day 25", "value": 42, "unit": "%"},
      {"measurement": "Histopathological Score (range)", "setting": "[2]; 10 mg/kg i.p. twice daily, Day 25, maximum possible score 16", "value": "7.7 (1-15)"},
      {"measurement": "Paw Arthritis Score", "setting": "[2]; [4]", "value": "3.3 ± .64"},
      {"measurement": "Paw Edema (1/100 in.)", "setting": "[2]; [4]", "value": "0.052 ± .0051 1/100 in."},
      {"measurement": "rate of disease progression as assessed by paw score", "setting": "[2]; 10 mg/kg i.p., bid, last 10 days of the study", "value": "significantly reduced"},
      {"measurement": "inhibition of Th1 cells", "setting": "Th1 cells", "value": "approx. 30%"},
      {"measurement": "colonic damage score (% of vehicle)", "setting": "[3]; 10 mg/kg", "value": "49 % of vehicle"},
      {"measurement": "histological score (% of control)", "setting": "[3]; 10 mg/kg", "value": "52 % of control"},
      {"measurement": "incidence of adhesions (% of vehicle)", "setting": "[3]; 10 mg/kg", "value": "36 % of vehicle"},
      {"measurement": "thickness of the bowel wall (% of vehicle)", "setting": "[3]; 10 mg/kg", "value": "30 % of vehicle"},
      {"measurement": "total reduction in the global colitis score compared to vehicle treated animals", "setting": "[3]; 10 mg/kg", "value": 51, "unit": "%"},
      {"measurement": "Mortality", "setting": "[3]; 10 mg/kg intracolonically at 12 h intervals for one week", "value": "0/8"},
      {"measurement": "Adhesion (Incidence)", "setting": "[3]; [5]", "value": "(3/8)^ζ"},
      {"measurement": "Adhesion Score", "setting": "[3]; [5]", "value": "0.5 ± 0.3"},
      {"measurement": "Bowel Thickness (mm)", "setting": "[3]; [5]", "value": "1.67 ± 0.28", "unit": "mm"},
      {"measurement": "Damage Score", "setting": "[3]; [5]", "value": "3.4 ± 0.9"},
      {"measurement": "Global Colitis Score", "setting": "[3]; [5]", "value": "5.86 ± 1.35"},
      {"measurement": "MPO Activity (U/mg)", "setting": "[3]; [5]", "value": "65.1 ± 8.6", "unit": "U/mg"},
      {"measurement": "MPO Activity (U/mg)", "setting": "[3]; 10 mg/kg intracolonically at 12 h intervals for one week, day 7, 10 mg/kg", "value": "not prevented"},
      {"measurement": "Diarrhea", "setting": "[3]; incidence, 10 mg/kg intracolonically at 12 h intervals for one week, day 7, 10 mg/kg", "value": "not statistically significant and 3/8"},
      {"measurement": "Histology Score", "setting": "[3]; percentage of luminal surface ulcerated, 10 mg/kg intracolonically for one week, day 7", "value": "50.6 ± 10.5"}
    ]}
  ]
}
